Reference: patent publication US6342503B1, “1N-alkyl-n-arylpyrimidinamines and derivatives thereof” (DuPont Pharmaceuticals Company, priority 1993, dated 2002)
pKi: −log10 of the molar value.

Biological target: T1, CRF receptor (Rattus norvegicus, UniProt P35353)
T1 construct: 100 μl of membrane suspension as prepared above to give a total reaction volume of 300 μl; from tissue; host or cells: rat cerebral cortex membrane homogenate
T1 sequence (P35353 24-415): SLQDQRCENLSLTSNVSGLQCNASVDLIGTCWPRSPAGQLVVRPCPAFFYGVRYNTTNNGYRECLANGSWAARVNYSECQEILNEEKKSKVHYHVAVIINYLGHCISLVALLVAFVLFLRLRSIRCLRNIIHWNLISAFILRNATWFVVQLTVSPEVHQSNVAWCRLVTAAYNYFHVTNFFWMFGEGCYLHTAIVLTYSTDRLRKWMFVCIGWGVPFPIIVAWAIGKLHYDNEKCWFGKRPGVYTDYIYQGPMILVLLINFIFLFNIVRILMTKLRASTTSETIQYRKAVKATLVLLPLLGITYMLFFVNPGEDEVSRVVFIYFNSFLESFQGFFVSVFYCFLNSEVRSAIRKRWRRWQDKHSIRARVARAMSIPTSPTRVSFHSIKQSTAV
Assay: In vitro CRF receptor binding assay (competition with [125I] ovine CRF, rat cortex membranes)
Settings: competition with [125I] ovine CRF, 2 h at 22° C.; Ki classes; read-out: Inhibition Ki
Method: In vitro Receptor Binding Assay
Tissue Preparation: Male Sprague Dawley rats (180-200 g) were sacrificed by decapitation and the cortex was dissected on ice, frozen whole in liquid nitrogen and stored at −70° C. until use. On the day of assay, frozen tissue was weighed and homogenized in 20 volumes of ice cold buffer containing 50 mM Tris, 10 mM MgCl2, 2 mM EGTA, pH 7.0 at 22° C. using a Polytron (Brinkmann Instruments, Westbury, N.Y.; setting 6) for 20 s. The homogenate was centrifuged at 48,000× g for 10 min at 4° C. The supernatant was discarded, and the pellet was re-homogenized in the same volume of buffer and centrifuged at 48,000× g for 10 min at 4° C. The resulting pellet was resuspended in the above buffer to a final concentration of 20-40 mg original wet weight/mL and used in the assays described below.
CRF Receptor Binding: Receptor binding assays were carried out essentially as described by E. B. De Souza, J. Neurosci. […]
All assays were carried out at equilibrium for 2 h at 22° C. as described by E. B. De Souza, J. Neurosci. […] The reaction was terminated by centrifugation of the tubes in a Beckman microfuge for 5 min at 12,000× g. Aliquots of the supernatant were collected to determine the “free” radioligand concentration. The remaining supernatant was aspirated and the pellets washed gently with ice-cold PBS plus 0.01% Triton X-100; centrifuged again and monitored for bound radioactivity as described above. […] This program has the distinct advantage of fitting the raw experimental data on an untransformed coordinate system where errors are most likely to be normally distributed and uncorrelated with the independent variable. […] The parameters for the affinity constants (KD) and receptor densities (Bmax) are also provided along with statistics on the general “fit” of the estimated parameters to the raw data.
Competition Curve Analysis
The resulting pellets were surface washed twice by centrifugation with 1 mL of ice-cold phosphate buffered saline and 0.01% Triton X-100; the supernatants discarded and the pellets monitored for radioactivity at approximately 80% efficiency. The level of non-specific binding was defined in the presence of […] unlabeled rat/humanCRF (r/hCRF). Data from competition curves were analyzed by the program LIGAND. […] Routinely, the data were analyzed using a one- and two-site model comparing the “goodness of fit” between the models in order to accurately determine the Ki. Statistical analyses provided by LIGAND allowed the determination of whether a single-site or multiple-site model should be used.
In Table 17; the Ki values were determined using the assay conditions described above.

CCN(c1nc(C)cc(C)n1)c1ccc(C(C)C)cc1OC [compound 65, N-ethyl-N-(2-methoxy4-(1-methylethyl)phenyl)4,6-dimethyl-2-pyimidinamine] was tested, and the pKi was 5.00 to 5.70.

Same assay, conditions: read-out: Inhibition Ki

CCN(c1nc(C)cc(COc2ccccc2)n1)c1ccc(C(C)C)cc1Br [compound 209] and CCN(c1nc(C)cc(OCc2ccccc2)n1)c1ccc(C(C)C)cc1Br [compound 149] cannot be ordered by pKi: > 6.30 for the first, > 6.30 for the second.

CCN(c1nc(C)cc(Cl)n1)c1ccc(C(C)C)cc1I [compound 167, N-(2-iodo4-(1-methylethyl)phenyl)-N-ethyl-4-chloro-6-methyl-2-pyrimidinamine] and CCN(c1nc(C)cc(Cl)n1)c1ccc(C(C)C)cc1Br [compound 154] cannot be ordered by pKi: > 6.30 for the first, > 6.30 for the second.

Compared with CCN(c1nc(Cl)nc(Cl)n1)c1ccc(C(C)(C)O)cc1I [compound 249, N-[2-iodo-4-dimethylhydroxymethylphenyl]-N-ethyl-4-6-dichloro-1,3,5 triazin-2-amine], CCN(c1nc(C)nc(N2CCOCC2)n1)c1ccc(C(C)C)cc1I [compound 136] is higher in pKi: 5.00 to 5.70 for the first, > 6.30 for the second. The second binds more tightly here.

CCN(c1nc(C)cc(COCc2cccnc2)n1)c1ccc(C(C)C)cc1Br [compound 216] and CCN(c1nc(C)cc(COCc2ccco2)n1)c1ccc(C(C)C)cc1Br [compound 221] cannot be ordered by pKi: > 6.30 for the first, > 6.30 for the second.

First: CCN(c1nc(C)cc(C)n1)c1c(OC)cc(C)cc1OC [compound 51]
Second: CCN(c1nc(C)cc(C)n1)c1ccc(OC)cc1Br [compound 206]
The pKi of the first is lower: 5.70 to 6.30 for the first, > 6.30 for the second.

First: Cc1cc(C)nc(N2CCCSc3cc(C(C)C)ccc32)n1 [compound 173]
Second: Cc1cc(C)nc(N(C)c2ccc(C(C)C)cc2Br)n1 [compound 4, N-(2-bromo-4-(1-methylethyl)phenyl)-N-methyl-4,6-dimethyl-2-pymidinamine]
The pKi of the first is lower: 5.70 to 6.30 for the first, > 6.30 for the second. The second binds more tightly here.

First: CCN(c1nc(C)nc(OCc2ccccc2)n1)c1ccc(C(C)C)cc1Br [compound 242, N-[2-bromo-4(1-methylethyl)phenyl]-N-ethyl-4-methyl-6-benzyloxy-1,3,5 triazin-2-amine]
Second: CCN(c1nc(C)cc(COc2ccc(OC)cc2)n1)c1ccc(C(C)C)cc1Br [compound 208]
The pKi of the first is lower: 5.70 to 6.30 for the first, > 6.30 for the second. The second binds more tightly here.

Compared with CCN(c1nc(C)cc(COCc2cc(OC)c(OC)c(OC)c2)n1)c1ccc(C(C)C)cc1Br [compound 212], CCN(c1nc(C)cc(COc2cc(OC)c(OC)c(OC)c2)n1)c1ccc(C(C)C)cc1Br [compound 214] is lower in pKi: > 6.30 for the first, 5.70 to 6.30 for the second.

First: CCSc1cc(C(C)C)ccc1N(CC)c1nc(C)cc(C)n1 [compound 175, N-(2-ethylthio-4-(1-methylethyl)phenyl)-N-ethyl-4,6dimethyl-2-pyrimidinamine]
Second: CCN(c1nc(C)cc(C(C)O)n1)c1ccc(C(C)C)cc1Br (stereo not shown) [compound 296]
The pKi of the first is lower: 5.70 to 6.30 for the first, > 6.30 for the second. The second binds more tightly here.

CCCCc1ccc(N(CC)c2nc(C)cc(C)n2)c(Br)c1 [compound 19] and C#CCN(c1nc(C)cc(C)n1)c1ccc(C(C)C)cc1Br [compound 34, N-(2-Bromo-4-(1-methylethyl)phenyl)-N-propargyl4,6-dimethyl-2-pyrimidinamine] cannot be ordered by pKi: > 6.30 for the first, > 6.30 for the second.

First: CCN(c1nc(C)cc(NN)n1)c1ccc(C(C)C)cc1Br [compound 146]
Second: CCN(c1nc(C)cc([S+](C)[O-])n1)c1ccc(C(C)C)cc1Br (stereo not shown) [compound 160, N-(2-bromo-4-(1-methylethyl)phenyl)-N-ethyl-4-methyl-6-(thiomethyl)-2-pyrimidinamine, S-oxide]
The pKi of the first is lower: 5.00 to 5.70 for the first, > 6.30 for the second. The second binds more tightly here.

Compared with CCN(c1nc(C)nc(N2CCCCC2)n1)c1ccc(C(C)C)cc1I [compound 137], CCN(c1nc(C)cc(COCCN2CCOCC2)n1)c1ccc(C(C)C)cc1Br [compound 231] is lower in pKi: > 6.30 for the first, 5.00 to 5.70 for the second.

First: CCN(c1nc(C)cc(C(=O)N2CCN(c3ccccn3)CC2)n1)c1ccc(C(C)C)cc1Br [compound 274]
Second: CCN(c1nc(C)cc(COCCOC)n1)c1ccc(C(C)C)cc1Br [compound 227]
The pKi of the first is lower: 5.00 to 5.70 for the first, > 6.30 for the second. The second binds more tightly here.

With Cc1cc(C)nc(N(C)c2ccc(I)cc2)n1 [compound 52] the pKi was 5.00 to 5.70.
